Experimental data published in patent US12351651B2, “Polypeptide for repairing mucosal damage or skin wound and use thereof” (Sichuan Gooddoctor Panxi Pharmaceutical Co., Ltd., priority 2020, dated 2025).
Values joined by “and” are separate entries in the source; they are usually repeats but may differ in a detail not shown here. Equal entries are not always repeated. Marks after values point to notes of the source that are not given here. No end group written: not given here.

Tests used:
[1] = tested on: ethanol-induced gastric ulcer model in mice; assay: Anti-ulcer activity of single administration in ethanol-induced model in mice; assay type: in vivo, C57BL/6 mice; conditions: single administration by gavage, 0.2 mg/kg, 1 h before absolute ethanol; relative to compound of SEQ ID NO: 1
Method: 1. Experimental animal: SPF grade C57BL/6 mice, from Chengdu Yaokang Shengwu Keji Youxian Gongsi, animal license number: SCXK (Chuan) 2020-034.
After adaptive feeding, all the animals were fasted for 24 h with free access to water after administration one day before the experiment. Before modeling, the experimental mice were randomly divided into groups: blank group (5 mice), model group (10 mice), and treatment groups (10 mice per group). Except for the blank group and the model group, which were given sterile water by gavage, the treatment groups were administered with different test compounds by gavage at a dose of 0.2 mg/kg, respectively. One hour after administration, the mice received 0.9 ml/kg absolute ethanol by oral gavage for modeling. After 1 h, the animals were sacrificed by cervical dislocation, the gastric cardia was ligated, the pylorus was occluded, and the whole stomach was removed. 1 mL of 1% formaldehyde solution was injected into the gastric lumen, the cardia was ligated, and the stomach was taken out and immediately immersed in 1% formaldehyde solution. After 30 min, the stomach tissue was taken out and cut open along the greater curvature. The content of the stomach was rinsed off with normal saline, the injury of gastric mucosa in mice were observed and measured after being laid flat, and the ulcer index and ulcer inhibition rate were calculated.
Calculation method for ulcer index: If the length of cord-like injury was greater than 1 mm, the length thereof was measured, with 1 point per millimeter; if the width thereof was greater than 1 mm, the score thereof was doubled according to the number of millimeters of the width; and if the length was less than 1 mm, a score of 0.5 was given, and the scores were added to obtain the ulcer index of the animal. • Ulcer inhibition rate=(ulcer index of model group-ulcer index of treatment group)/ulcer index of model group*100%; and • Relative ulcer inhibition rate=(ulcer inhibition rate of test compound)/(ulcer inhibition rate of Compound 1).

[2] = Gastric and intestinal stability test of polypeptide samples; assay type: in vitro ADME; conditions: 37° C., 1 hour, HPLC peak area; for W Retained %: artificial gastric juice (W); for X Retained %: artificial intestinal juice (X); for O Retained %: hydrogen peroxide solution (O); for I Retained %: povidone-iodine solution (I)
Method: Method: 1 mg of each of the samples to be tested (Compounds 1, 26, 27 and 28 and EGF) were taken and dissolved in 1 ml of water. 100 ul of sample solution was taken, 900 ul of water was added, and they were uniformly mixed, as a control solution. 100 ul of each sample solution was taken, and 900 ul of artificial gastric juice (W), artificial intestinal juice (X), povidone-iodine solution (I), and hydrogen peroxide solution (O) were respectively added. The solution was placed in a constant temperature water bath at 37° C. for 1 hour, and left to stand for cooling and filtering, as a test solution. The peak areas of the sample before and after treatment were respectively detected by high performance liquid chromatography, and the experimental results were compared based on the peak areas of the samples. The original solution without any treatment after being diluted with water was used as a control, and the changes in the peak areas (contents) of test solutions at corresponding positions were compared and counted.

[3] = tested on: subintestinal vascular branches of zebrafish; assay: Repair of simvastatin-induced vascular injury in zebrafish; assay type: in vivo; conditions: 500 ng/fish intravenous injection, 28° C., 2 days
Excerpt: Method: The blood vessels of transgenic vascular green fluorescent zebrafish (Fli-1) were labeled by green fluorescent protein, which was clearly visible under a fluorescence microscope (FIG. 9, the dotted frame in FIG. 9 (yellow in the original picture) was the intestinal blood vessel at the analysis site, and the arrow (white in the original picture) pointed to subintestinal vascular branches), and it became a model organism for observing vascular change. Zebrafish Fli-1 was naturally mated in pairs for breeding. Zebrafish Fli-1 was randomly selected and placed in a 6-well plate one day after fertilization, with 30 fish per well (experimental group). The zebrafish in the normal control group were treated with standard dilution water, and each of the other experimental groups was induced with aqueous simvastatin for 3 hours to establish a zebrafish microvascular loss model. After 3 hours, the aqueous solutions in all the groups were replaced with standard dilution water, and simvastatin induction was terminated. […] Ten zebrafish in each group were randomly selected and photographed under the fluorescence microscope. NIS-Elements D 3.20 advanced image processing software was used for analysis and data collection, and the number of subintestinal vascular branches was analyzed.

[4] = tested on: aspirin-induced gastric ulcer in rats; assay: Aspirin-induced gastric ulcer in rats; assay type: in vivo, SD rats
Method: Method: After adaptive feeding, SD rats were divided into three groups (10 rats in each group) by Excel-based complete randomization, namely, a control group, a model group, and a the compound of SEQ ID NO: 1 (0.3 mg/kg) group. After the animals were grouped, they were given corresponding treatments (the control group and the model group were given the same volume of purified water, and the SEQ ID NO: 1 group was given corresponding drug treatment) once a day for 8 consecutive days. On the 7th day after administration, all the animals were fasted for 24 h with free access to water. On the 8th day, except for the control group, the rats in the SEQ ID NO: 1 group and the model group were orally given 250 mg/kg aspirin solution for modeling 30 min after compound administration (or given water). 4 h after modeling, the animals were sacrificed, the cardia was ligated, the pylorus was occluded, and the whole stomach was removed. 8 mL of 1% formaldehyde solution was injected into the gastric lumen, the pylorus was ligated, and the stomach was taken out and immediately immersed in 1% formaldehyde solution for fixation. After 30 min, the stomach was cut open along the greater curvature, the content of the stomach was cleaned off with normal saline, and after the stomach was laid flat, the stomach was observed, and panoramic photos were taken to measure the ulcer area.

[5] = tested on: ethanol-induced gastric ulcer in mice; assay: Ethanol-induced gastric ulcer in mice, administration once a day for 8 days; assay type: in vivo, C57BL/6 mice; conditions: absolute ethanol, gavage once a day for 8 days, SEQ ID NO: 1 1 mg/kg, teprenone 160 mg/kg, n = 10, x ± s
Method: 1. Experimental animal: SPF grade C57BL/6 mice, from Chengdu Yaokang Biotechnology Ltd, animal license number: SCXK (Chuan) 2020-034.
2. Method: After adaptive feeding, the mice were randomly divided into four groups with 10 mice in each group, namely, control group (normal group), model group (modeling with absolute ethanol), positive drug group (teprenone 160 mg/kg) and SEQ ID NO: 1 group (1 mg/kg). After the animals were grouped, the control group and model group were treated with pure water, and the other dosed groups were treated with the corresponding drugs once a day for 8 consecutive days. On the 7th day, after treatment, all the animals were fasted for 24 h with free access to water. […] The stomach was cut open along the greater curvature, the content of the stomach was cleaned off with normal saline, and the ulcer index was calculated after being laid flat. Calculation method for ulcer index: If the length of cord-like injury was greater than 1 mm, the length thereof was measured, with 1 point per millimeter; if the width thereof was greater than 1 mm, the score thereof was doubled according to the number of millimeters of the width; and if the length was less than 1 mm, a score of 0.5 was given, and the scores were added up to obtain the ulcer index of the animal.

Substance | Anti-ulcer activity (mean relative ulcer inhibition rate) [1] | also measured
AEPVPL [SEQ ID NO: 30] | +++ (relative ulcer inhibition rate 0.9-1.20, denoted as “+++”) | –
AEPVPLVKQD [SEQ ID NO: 27] | +++ (relative ulcer inhibition rate 0.9-1.20, denoted as “+++”) | W Retained % [2]: 100% and 97%; X Retained % [2]: 0%; O Retained % [2]: 100% and 101%; I Retained % [2]: 100%
Ala-Glu-Pro-Val (AEPV) [SEQ ID NO: 45] | − (relative ulcer inhibition rate <0, denoted as “−”) | –
Ala-Glu-Pro-Val-Pro (AEPVP) [SEQ ID NO: 44] | + (relative ulcer inhibition rate 0.3-0.6, denoted as “+”) | –
EPVPLVKQD [SEQ ID NO: 38] | +++ (relative ulcer inhibition rate 0.9-1.20, denoted as “+++”) | –
Glu-Pro-Val-Pro-Leu (EPVPL) [SEQ ID NO: 31] | +++ (relative ulcer inhibition rate 0.9-1.20, denoted as “+++”) | –
PAADPVPLVKQD [SEQ ID NO: 11] | ++ (relative ulcer inhibition rate 0.6-0.9, denoted as “++”) | –
PAAEGVGLVKQD [SEQ ID NO: 8] | + (relative ulcer inhibition rate 0.3-0.6, denoted as “+”) | –
PAAEPV [SEQ ID NO: 34] | / (0< relative ulcer inhibition rate <0.3, denoted as “/” (very low activity)) | –
PAAEPVPFVKQD [SEQ ID NO: 12] | / (0< relative ulcer inhibition rate <0.3, denoted as “/” (very low activity)) | –
PAAEPVPL [SEQ ID NO: 26] | +++ (relative ulcer inhibition rate 0.9-1.20, denoted as “+++”) | subintestinal microvascular loss caused by simvastatin / number of subintestinal vascular branches [3]: significantly reverse; W Retained % [2]: 100%; O Retained % [2]: 100% and 102%; I Retained % [2]: 100% and 101%
PAAEPVPLIKQD [SEQ ID NO: 64] | + (relative ulcer inhibition rate 0.3-0.6, denoted as “+”) | –
PAAEPVPLVK [SEQ ID NO: 3] | +++ (relative ulcer inhibition rate 0.9-1.20, denoted as “+++”) | –
PAAEPVPLVKED [SEQ ID NO: 57] | ++ (relative ulcer inhibition rate 0.6-0.9, denoted as “++”) | –
PAAEPVPLVKND [SEQ ID NO: 58] | / (0< relative ulcer inhibition rate <0.3, denoted as “/” (very low activity)) | –
PAAEPVPLVKQD [SEQ ID NO: 1, Pro-Ala-Ala-Glu-Pro-Val-Pro-Leu-Val-Lys-Gln-Asp] | – | weight change ([4]; 0.3 mg/kg oral gavage once a day for 8 consecutive days): no obvious effects
PAAEPVPLVKQE [SEQ ID NO: 60] | + (relative ulcer inhibition rate 0.3-0.6, denoted as “+”) | –
PAAEPVPLVKQN [SEQ ID NO: 50] | / (0< relative ulcer inhibition rate <0.3, denoted as “/” (very low activity)) | –
PAAQPVPLVKQD [SEQ ID NO: 10] | ++++ (Relative ulcer inhibition rate >1.20, denoted as “++++”) | –
PAAVPVPLVKQD [SEQ ID NO: 67] | + (relative ulcer inhibition rate 0.3-0.6, denoted as “+”) | –
PAGEPVPLVKQD [SEQ ID NO: 48] | ++ (relative ulcer inhibition rate 0.6-0.9, denoted as “++”) | –
PIAEPVPLVKQD [SEQ ID NO: 56] | − (relative ulcer inhibition rate <0, denoted as “−”) | –
PVPLVKQD [SEQ ID NO: 28] | +++ (relative ulcer inhibition rate 0.9-1.20, denoted as “+++”) | W Retained % [2]: 100% and 96%; X Retained % [2]: 0%; O Retained % [2]: 100% and 99%; I Retained % [2]: 100% and 99%
Pro-Ala-Ala-Glu-Pro (PAAEP) [SEQ ID NO: 35] | + (relative ulcer inhibition rate 0.3-0.6, denoted as “+”) | –
Pro-Val-Pro-Leu (PVPL) [SEQ ID NO: 32] | +++ (relative ulcer inhibition rate 0.9-1.20, denoted as “+++”) | –
SEQ ID NO. 1 (PAAEPVPLVKQD) | – | Ulcer area ([4]; rats, 0.3 mg/kg gavage once a day for 8 days, aspirin 250 mg/kg): 20.55 ± 10.45** mm^2
Val-Pro-Leu-Val (VPLV) [SEQ ID NO: 73] | ++ (relative ulcer inhibition rate 0.6-0.9, denoted as “++”) | –
teprenone | – | Ulcer index [5]: 13.42 ± 7.61
